In PubChem BioAssay AID1259407 (Chemical Carcinogenesis Research Information System (CCRIS), 2018) one finds mutagenic call data, which are given here for twelve compounds.

Molecules are shown by their SMILES. The source made the active and inactive calls. How the calls were made is not given here.

The series deals with CCRIS mutagenicity, Ames/micronucleus/aberration tests. Description: CCRIS mutagenicity studies.
The mark [1] stands for this setting: Test System: AMES SALMONELLA TYPHIMURIUM, Strain/Indicator: TA100, Metabolic Activation: S-9, Method: STANDARD PLATE.
Where [2] appears, read: Test System: AMES SALMONELLA TYPHIMURIUM, Strain/Indicator: TA98, Metabolic Activation: NONE, Method: STANDARD PLATE.
Setting [3] is: Test System: AMES SALMONELLA TYPHIMURIUM, Strain/Indicator: TA98, Metabolic Activation: RAT, LIVER, S-9, AROCLOR 1254, Method: STANDARD PLATE.
Where [4] appears, read: Test System: AMES SALMONELLA TYPHIMURIUM, Strain/Indicator: TA100, Metabolic Activation: NONE, Method: STANDARD PLATE.
Setting [5] is: Test System: AMES SALMONELLA TYPHIMURIUM, Strain/Indicator: TA1537, Metabolic Activation: NONE, Method: STANDARD PLATE.
Setting [6] is: Test System: AMES SALMONELLA TYPHIMURIUM, Strain/Indicator: TA1535, Metabolic Activation: NONE, Method: STANDARD PLATE.

As to `CCC(=O)N=c1sn(C(=O)CC)c2ccc([N+](=O)[O-])cc12`, the mutagenic call under setting [1] is “active; positive”.

As to `S=C1SSC2=NCCN12`, the mutagenic call (Test System: AMES SALMONELLA TYPHIMURIUM, Strain/Indicator: TA97, Metabolic Activation: NONE, Method: STANDARD PLATE) was “inactive; negative”; the mutagenic call (Test System: AMES SALMONELLA TYPHIMURIUM, Strain/Indicator: TA97, Metabolic Activation: RAT, LIVER, S-9, AROCLOR 1254, Method: STANDARD PLATE) was “inactive; negative”; the mutagenic call under setting [2] was “inactive; negative”; the mutagenic call under setting [3] is “inactive; negative”; the mutagenic call under setting [4] is “inactive; negative”.

With `COC(COC(N)=O)C1=C(N2CC2)C(=O)C(C)=C(N2CC2)C1=O` (stereo not drawn), the mutagenic call is, setting by setting: under setting [2], “active; positive”; under setting [4], “active; positive”; under setting [5], “active; positive”; (Test System: CHINESE HAMSTER V-79, Strain/Indicator: V-79/6-THIOGUANINE, Metabolic Activation: NONE, Method: FLASK ASSAY) “active; positive”; (Test System: E. COLI, Strain/Indicator: WP2 (HCR), Metabolic Activation: NONE, Method: STANDARD PLATE) “active; positive”.

Regarding `ONc1ccc(Cl)cc1`, the mutagenic call is, setting by setting: under setting [2], “inactive; negative”; under setting [4], “inactive; negative”; under setting [6], “inactive; negative”; (Test System: E. COLI, Strain/Indicator: WP2 UVRA(P), Metabolic Activation: NONE, Method: STANDARD PLATE) “inactive; negative”; (Test System: E. COLI, Strain/Indicator: WP2 UVRA, Metabolic Activation: NONE, Method: FLUCTUATION TEST) “inactive; negative”; (Test System: E. COLI, Strain/Indicator: WP2 UVRA, Metabolic Activation: NONE, Method: STANDARD PLATE) “inactive; negative”.

Regarding `Nc1ccc(Sc2ccccc2)cc1`, the mutagenic call is, setting by setting: under setting [2], “inactive; negative”; under setting [3], “active; positive”.

Consider `CCCC[C@@H](C)[C@@H](OC(=O)C[C@@H](CC(=O)O)C(=O)O)[C@H](C[C@@H](C)CCCCCC[C@@H](O)C[C@H](O)[C@H](C)N)OC(=O)C[C@@H](CC(=O)O)C(=O)O`, for which the mutagenic call by setting is: (Test System: AMES SALMONELLA TYPHIMURIUM, Strain/Indicator: TA97A, Metabolic Activation: NONE, Method: STANDARD PLATE) “inactive; negative”; (Test System: AMES SALMONELLA TYPHIMURIUM, Strain/Indicator: TA97A, Metabolic Activation: RAT, LIVER, S-9, AROCLOR 1254, Method: STANDARD PLATE) “inactive; negative”; under setting [2], “inactive; negative”; under setting [3], “inactive; negative”; under setting [4], “inactive; negative”; (Test System: AMES SALMONELLA TYPHIMURIUM, Strain/Indicator: TA100, Metabolic Activation: RAT, LIVER, S-9, AROCLOR 1254, Method: STANDARD PLATE) “inactive; negative”. Besides, the mutagenic call is “inactive; negative” (Test System: AMES SALMONELLA TYPHIMURIUM, Strain/Indicator: TA102, Metabolic Activation: NONE, Method: STANDARD PLATE) and “inactive; negative” (Test System: AMES SALMONELLA TYPHIMURIUM, Strain/Indicator: TA102, Metabolic Activation: RAT, LIVER, S-9, AROCLOR 1254, Method: STANDARD PLATE).

As to `CN(C)CCNC(=O)c1cccc2c(=O)c3ccccc3oc12`, the mutagenic call under setting [5] is “active; positive”.

In the case of `ONc1ccccc1-c1ccccc1`, the mutagenic call was “inactive; negative” under setting [2] and “active; positive” under setting [4].

For `CCC(Cl)[N+](=O)[O-]` (stereo not drawn), the mutagenic call runs as follows: (Test System: AMES SALMONELLA TYPHIMURIUM, Strain/Indicator: TA98, Metabolic Activation: HAMSTER, LIVER, S-9, AROCLOR 1254 (30%), Method: PREINCUBATION) “active; positive”; (Test System: AMES SALMONELLA TYPHIMURIUM, Strain/Indicator: TA98, Metabolic Activation: NONE, Method: PREINCUBATION) “active; positive”; (Test System: AMES SALMONELLA TYPHIMURIUM, Strain/Indicator: TA98, Metabolic Activation: RAT, LIVER, S-9, AROCLOR 1254 (30%), Method: PREINCUBATION) “active; positive”; (Test System: AMES SALMONELLA TYPHIMURIUM, Strain/Indicator: TA100, Metabolic Activation: HAMSTER, LIVER, S-9, AROCLOR 1254 (30%), Method: PREINCUBATION) “active; positive”; (Test System: AMES SALMONELLA TYPHIMURIUM, Strain/Indicator: TA100, Metabolic Activation: NONE, Method: PREINCUBATION) “active; positive”; (Test System: AMES SALMONELLA TYPHIMURIUM, Strain/Indicator: TA100, Metabolic Activation: RAT, LIVER, S-9, AROCLOR 1254 (30%), Method: PREINCUBATION) “active; positive”.

Consider `Cc1ccc2nsc(NC(=O)C(Cl)Cl)c2c1`, for which the mutagenic call is, setting by setting: under setting [2], “active; positive”; (Test System: AMES SALMONELLA TYPHIMURIUM, Strain/Indicator: TA98, Metabolic Activation: S-9, Method: STANDARD PLATE) “active; positive”; under setting [4], “active; positive”; under setting [1], “active; positive”; under setting [6], “inactive; negative”; (Test System: AMES SALMONELLA TYPHIMURIUM, Strain/Indicator: TA1535, Metabolic Activation: S-9, Method: STANDARD PLATE) “inactive; negative”. The mutagenic call was “active; positive” under setting [5] and “active; positive” (Test System: AMES SALMONELLA TYPHIMURIUM, Strain/Indicator: TA1537, Metabolic Activation: S-9, Method: STANDARD PLATE).

Turning to `CC(=O)NC[C@@H](O)COc1cccc2ccccc12`, the mutagenic call was “inactive; negative” (Test System: AMES SALMONELLA TYPHIMURIUM, Strain/Indicator: TA98, Metabolic Activation: RAT, LIVER, S-9, AROCLOR 1254, Method: PREINCUBATION); “inactive; negative” (Test System: AMES SALMONELLA TYPHIMURIUM, Strain/Indicator: TA100, Metabolic Activation: RAT, LIVER, S-9, AROCLOR 1254, Method: PREINCUBATION); “inactive; negative” (Test System: AMES SALMONELLA TYPHIMURIUM, Strain/Indicator: TA102, Metabolic Activation: RAT, LIVER, S-9, AROCLOR 1254, Method: PREINCUBATION); “inactive; negative” (Test System: AMES SALMONELLA TYPHIMURIUM, Strain/Indicator: TA104, Metabolic Activation: RAT, LIVER, S-9, AROCLOR 1254, Method: PREINCUBATION); “inactive; negative” (Test System: AMES SALMONELLA TYPHIMURIUM, Strain/Indicator: TA1535, Metabolic Activation: RAT, LIVER, S-9, AROCLOR 1254, Method: PREINCUBATION); “inactive; negative” (Test System: AMES SALMONELLA TYPHIMURIUM, Strain/Indicator: TA1538, Metabolic Activation: RAT, LIVER, S-9, AROCLOR 1254, Method: PREINCUBATION). The mutagenic call is “inactive; negative” (Test System: AMES SALMONELLA TYPHIMURIUM, Strain/Indicator: YG1021, Metabolic Activation: RAT, LIVER, S-9, AROCLOR 1254, Method: PREINCUBATION); “inactive; negative” (Test System: AMES SALMONELLA TYPHIMURIUM, Strain/Indicator: YG1024, Metabolic Activation: RAT, LIVER, S-9, AROCLOR 1254, Method: PREINCUBATION); “inactive; negative” (Test System: AMES SALMONELLA TYPHIMURIUM, Strain/Indicator: YG1026, Metabolic Activation: RAT, LIVER, S-9, AROCLOR 1254, Method: PREINCUBATION); “inactive; negative” (Test System: AMES SALMONELLA TYPHIMURIUM, Strain/Indicator: YG1029, Metabolic Activation: RAT, LIVER, S-9, AROCLOR 1254, Method: PREINCUBATION); “inactive; negative” (Test System: AMES SALMONELLA TYPHIMURIUM, Strain/Indicator: YG1041, Metabolic Activation: RAT, LIVER, S-9, AROCLOR 1254, Method: PREINCUBATION); “inactive; negative” (Test System: AMES SALMONELLA TYPHIMURIUM, Strain/Indicator: YG1042, Metabolic Activation: RAT, LIVER, S-9, AROCLOR 1254, Method: PREINCUBATION). Besides, for the setting “Test System: AMES SALMONELLA TYPHIMURIUM, Strain/Indicator: YG3003, Metabolic Activation: RAT, LIVER, S-9, AROCLOR 1254, Method: PREINCUBATION”, the mutagenic call is “inactive; negative”.

In the case of `Cc1ccc(N)c(Cl)c1`, under “Test System: UDS RODENT HEPATOCYTES, Strain/Indicator: THY INCORP (NON-S-PHASE), Metabolic Activation: NONE, Method: AUTORADIOGRAPHY”, the mutagenic call is “active; positive”.
